Laboratory results: patent US20180264121A1, “CANNABINOID-CONTAINING ORAL PHARMACEUTICAL COMPOSITION, METHOD FOR PREPARING AND USING SAME” (PRATI-DONADUZZI & CIA LTDA., priority 2015, published 2018)

Assay: Solubility of the API (quality-control specification)
Type: physicochemical
Excerpt: Validated Analytical Methodology and Acceptable Limits to Ensure Identity, Quality and Purity of the API.

SMILES: C=C(C)[C@@H]1CCC(C)=C[C@H]1c1c(O)cc(CCCCC)cc1O [API, cannabidiol]
- SOLUBILITY (in chloroform): SOLUBLE
- SOLUBILITY (in ethanol 96%): SOLUBLE
- SOLUBILITY (in hexane): SLIGHTLY SOLUABLE IN HEXANE
- SOLUBILITY (in purified water): INSOLUBLE
